{"source": "patent US9546144B2", "about": "“Bifunctional compounds” (University of Pittsburgh—of the Commonwealth System of …, priority 2011, dated 2017)", "key": {"C57BL/6NTac mice": {"system": "C57BL/6NTac mice", "assay": "total body irradiation survival (hematopoietic syndrome)", "type": "in vivo, mouse", "conditions": "9.5 Gy", "description": "FIG. 11. MMS350 was dissolved in PBS and injected IP at 20 mg/kg. The mice were irradiated to 9.5 Gy total body irradiation and then injected at 4 or 24 hr after irradiation.\nFIG. 13. In vivo mitigation of total body irradiation by MMS350. MMS350 was dissolved in water at a concentration of 2 mg/ml. C57BL/6NTac mice (n=15/group) were irradiated to 9.5 Gy total body irradiation and injected intraperitoneally with 10 mg/kg of MMS350 at 4 or 24 hr. after irradiation. The mice were followed for the development of the hematopoietic syndrome at which time the mice were sacrificed.\nMMS350 was delivered by intraperitoneal injection to C57BL/6 mice (n=15/group) before or after the 9.5 Gy of total body irradiation (a dose which kills at least 50% of mice at 30 days) and indicative of death from the hematopoietic syndrome (bone marrow failure).\nMice were irradiated using JL Shepherd Mark 1 Model 68 irradiator to 9.25 total body irradiation dose or a Varian Linear Accelerator (Varian Medical Systems, Inc, Palo Alto, Calif.) to 20 Gy for pulmonary irradiation according to published methods (2, 10, 13).\nMice were injected intra-peritoneally with MMS350 or JP4-039 (GS-nitroxide) in 50% cremphor/50% ethanol according to published methods. For long-term administration of MMS350, the drug was administered in water bottles with bottles changed every 7 days. The dose of drug per bottle was 100 μM MMS350 starting on day 88. The estimated total amount consumed by each animal daily was 10.9 μg based on a mouse drinking 5 ml of water per day. Chimeric mice irradiated to the thoracic cavity were placed 30 days later on MMS350 in water containing 100 mM MMS350. On day 88 after thoracic irradiation of non-chimeric mice, mice were placed on […] MMS350 in drinking water."}, "PKD1": {"biological_target": "T1, PKD1 (Homo sapiens, UniProt Q15139)", "T1 sequence (Q15139 1-912)": "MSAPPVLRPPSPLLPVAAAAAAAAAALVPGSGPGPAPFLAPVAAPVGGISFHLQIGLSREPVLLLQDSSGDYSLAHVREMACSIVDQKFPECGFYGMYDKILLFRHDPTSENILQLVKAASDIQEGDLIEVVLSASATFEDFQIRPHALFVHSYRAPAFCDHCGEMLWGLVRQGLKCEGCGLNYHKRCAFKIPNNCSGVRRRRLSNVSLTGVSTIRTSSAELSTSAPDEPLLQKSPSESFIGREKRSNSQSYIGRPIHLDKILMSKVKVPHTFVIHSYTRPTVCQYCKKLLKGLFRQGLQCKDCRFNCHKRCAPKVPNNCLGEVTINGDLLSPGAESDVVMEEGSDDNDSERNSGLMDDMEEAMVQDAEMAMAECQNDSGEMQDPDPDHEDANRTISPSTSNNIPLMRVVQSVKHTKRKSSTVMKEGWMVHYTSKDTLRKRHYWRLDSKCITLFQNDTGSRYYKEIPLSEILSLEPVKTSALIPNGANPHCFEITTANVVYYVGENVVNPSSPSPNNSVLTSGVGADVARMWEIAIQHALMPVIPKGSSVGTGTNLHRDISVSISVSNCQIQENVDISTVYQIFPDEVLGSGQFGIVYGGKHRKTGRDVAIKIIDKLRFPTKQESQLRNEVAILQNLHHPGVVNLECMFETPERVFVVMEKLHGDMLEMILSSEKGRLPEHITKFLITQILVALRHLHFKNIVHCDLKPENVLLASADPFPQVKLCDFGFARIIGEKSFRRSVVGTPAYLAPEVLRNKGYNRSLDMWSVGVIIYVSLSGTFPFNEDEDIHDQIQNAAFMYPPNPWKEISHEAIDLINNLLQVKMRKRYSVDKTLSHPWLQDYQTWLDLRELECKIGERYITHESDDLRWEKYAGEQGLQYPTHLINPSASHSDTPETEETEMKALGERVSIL", "assay": "radiometric PKD1 inhibition assay, cosolvent interference", "type": "biochemical", "conditions": "stock solutions in 25% 3/NMP", "description": "FIG. 8. Plot of PKD1 activity with compound concentrations of 1 μM. […] The % PKD1 activity is reported as the mean, and error bars represent SEM (n=3). The % PKD1 activity was determined as previously described.\nFIG. 9. Plot of PKD1 activity with compound concentrations of 10 μM. […] The % PKD1 activity is reported as the mean, and error bars represent SEM (n=3). The % PKD1 activity was determined as previously described.\nRecently, a series of compounds with nanomolar to micromolar inhibitory activity against the serine/threonine protein kinase D (PKD) isoform PKD1 was disclosed (FIG. 7). Several lead structures, especially those containing a pyrimidine moiety, suffered from poor solubility not only in aqueous media but also in DMSO. To test the feasibility of using sulfoxide 3 as a cosolvent for in vitro assays, its use in the radiometric PKD1 inhibition assay was examined. Inhibitory activity at two concentrations (1 μM and 10 μM) was measured using compound stock solutions in three formulations: DMSO, NMP, and 25% 3/NMP (FIGS. 8 and 9)."}, "[1]": {"system": "bone marrow stromal cell line derived from C57BL/6NTac mice", "assay": "in vitro clonogenic radiation survival curves", "type": "cell-based, mouse", "conditions": "100 μM added 10 min after irradiation; control 1.9±0.1, p=0.0444", "description": "FIG. 12. In vitro radioprotection and mitigation of bone marrow stromal cells. In vitro survival curves were performed using a bone marrow stromal cell line derived from C57BL/6NTac mice. Cells were incubated in 100 μM MMS350 for one hour before irradiation or was added to the cells 10 min after irradiation. Cells were irradiated to doses ranging from 0 to 8 Gy, plated in 4 well tissue culture plates, incubated for 7 days at 37° C. in a humidified CO2 incubator, and stained with crystal violet. Colonies of greater than 50 cells were counted and analyzed using a linear quadratic model or single-hit, multi-target model.\nThe murine C57BL/6 bone marrow stromal cell line (Epperly M W, Sikora C A, Defilippi S, Gretton J E, Greenberger J S. Bone marrow origin of myofibroblasts in irradiation pulmonary fibrosis. Am J Resp Molecular Cell Biology 2003; 29:213-224) and its use in clonogenic radiation survival curves has been described (Epperly M W, Gretton J E, Bernarding M, Nie S, Rasul B, Greenberger J S. Mitochondrial localization of copper/zinc superoxide dismutase (Cu/ZnSOD) confers radioprotective functions in vitro and in vivo. Radiation Research 2003; 160:568-578).\nCell lines were irradiated at dose rate of 70 cGy per minute using a Cesium Gamma Cell Irradiator according to published methods. […]"}}}
{"smiles": "CC1(C[S+]([O-])CC2(C)COC2)COC1", "note": "[compound 3, 3,3′-Sulfinylbis(methylene)bis(3-methyloxetane)]", "values": [{"measurement": "survival after total body irradiation", "setting": "C57BL/6NTac mice; 10 mg/kg intraperitoneally 4 hr after irradiation, p=0.0092", "value": "significantly increased survival"}, {"measurement": "survival after total body irradiation", "setting": "C57BL/6NTac mice; 10 mg/kg intraperitoneally 24 hr after irradiation, p=0.0097", "value": "significantly increased survival"}, {"measurement": "protection against total body irradiation", "setting": "C57BL/6NTac mice; intraperitoneal injection before irradiation", "value": "protector when delivered prior to irradiation"}, {"measurement": "interference with the standard PKD1 inhibition assay", "setting": "PKD1", "value": "did not interfere"}, {"measurement": "D0 of the survival curve", "setting": "[1]", "value": "2.4±0.3"}]}
